From ChEMBL document CHEMBL4261501, “Design, synthesis and biological evaluation of imidazopyridine-propenone conjugates as potent tubulin inhibitors” (Medchemcomm, 2017)
Values belong to the compound of their own block, whether it stands above or below them. Calls of active or inactive are those of the source. The calls are words filed in the database; no cut-off is given here.

Legend:
MCF7 = experiment: cells; details: Homo sapiens, MCF7, 48 h
Description: Cytotoxicity against human MCF7 cells after 48 hrs by MTT assay

DU-145 = experiment: Cytotoxicity against human DU145 cells after 48 hrs by MTT assay; format: functional, cell-based; details: DU-145, 48 h
HeLa = experiment: cells; details: Homo sapiens, 48 h
Description: Cytotoxicity against human HeLa cells after 48 hrs by MTT assay

A549 [1] = experiment: cells; details: Homo sapiens, A549, 48 h
Description: Cytotoxicity against human A549 cells after 48 hrs by MTT assay

A549 [2] = experiment: Induction of apoptosis in human A549 cells assessed as cytoplasmic condensation at 0.5 uM after 48 hrs by Hoechst 33258 staining based fluorescence microscopic analysis; format: functional, cell-based
A549 [3] = experiment: Induction of apoptosis in human A549 cells assessed as early apoptotic cells at 0.5 uM after 48 hrs by Annexin V-FITC/propidium iodide staining based flow cytometry (reference value: 1.03%); format: functional
A549 [4] = experiment: Cell cycle arrest in human A549 cells assessed as accumulation at S phase at 1 uM after 48 hrs by propidium iodide staining based flow cytometry (reference value: 1.92%); format: functional
A549 [5] = experiment: Induction of mitochondrial membrane potential loss in human A549 cells assessed as collapse of the mitochondrial membrane potential at 0.5 uM after 48 hrs by JC1 staining based flow cytomtery (reference value: 3.5%); format: functional
A549 [6] = experiment: Induction of apoptosis in human A549 cells assessed as late apoptotic cells at 1 uM after 48 hrs by Annexin V-FITC/propidium iodide staining based flow cytometry (reference value: 3.83%); format: functional
A549 [7] = experiment: Cell cycle arrest in human A549 cells assessed as accumulation at sub-G1 phase at 1 uM after 48 hrs by propidium iodide staining based flow cytometry (reference value: 1.11%); format: functional
A549 [8] = experiment: Disruption of microtubule organization in human A549 cells at 0.5 uM after 48 hrs by fluorescence microscopic analysis; format: cell-based
A549 [9] = experiment: Cell cycle arrest in human A549 cells assessed as accumulation at S phase at 0.5 uM after 48 hrs by propidium iodide staining based flow cytometry (reference value: 1.92%); format: functional
A549 [10] = experiment: Induction of apoptosis in human A549 cells assessed as necrotic cells at 0.5 uM after 48 hrs by Annexin V-FITC/propidium iodide staining based flow cytometry (reference value: 1.17%); format: functional
A549 [11] = experiment: Cell cycle arrest in human A549 cells assessed as accumulation at G2/M phase at 0.5 uM after 48 hrs by propidium iodide staining based flow cytometry (reference value: 7.4%); format: functional
A549 [12] = experiment: Induction of mitochondrial membrane potential loss in human A549 cells assessed as intact mitochondrial membrane at 1 uM after 48 hrs by JC1 staining based flow cytomtery (reference value: 96.3%); format: functional
A549 [13] = experiment: Induction of apoptosis in human A549 cells assessed as necrotic cells at 1 uM after 48 hrs by Annexin V-FITC/propidium iodide staining based flow cytometry (reference value: 1.17%); format: functional
Tubulin (Homo sapiens) = Tubulin (Homo sapiens) (UniProt P68371+Q9H4B7+P0DPH7+P68366+Q13509+Q71U36+P04350+Q3ZCM7+P07437+P68363+Q9BQE3+Q6PEY2+Q13885+Q9BVA1+Q9BUF5); experiment: Inhibition of tubulin polymerization (unknown origin) at 3 uM after 1 hr by fluorescence assay relative to control; format: protein-complex assay
Tubulin = experiment: Inhibition of tubulin polymerization (unknown origin) after 1 hr by fluorescence assay; format: protein-complex assay, Homo sapiens
A549 [14] = experiment: Induction of apoptosis in human A549 cells assessed as late apoptotic cells at 0.5 uM after 48 hrs by Annexin V-FITC/propidium iodide staining based flow cytometry (reference value: 3.83%); format: functional
A549 [15] = experiment: Induction of apoptosis in human A549 cells assessed as early apoptotic cells at 1 uM after 48 hrs by Annexin V-FITC/propidium iodide staining based flow cytometry (reference value: 1.03%); format: functional
A549 [16] = experiment: Induction of apoptosis in human A549 cells assessed as live cells at 1 uM after 48 hrs by Annexin V-FITC/propidium iodide staining based flow cytometry (reference value: 93.97%); format: functional
A549 [17] = experiment: Cell cycle arrest in human A549 cells assessed as accumulation at G0/G1 phase at 0.5 uM after 48 hrs by propidium iodide staining based flow cytometry (reference value: 90.52%); format: functional
A549 [18] = experiment: Induction of mitochondrial membrane potential loss in human A549 cells assessed as collapse of the mitochondrial membrane potential at 1 uM after 48 hrs by JC1 staining based flow cytomtery (reference value: 3.5%); format: functional
A549 [19] = experiment: Induction of apoptosis in human A549 cells assessed as formation of apoptotic bodies at 0.5 uM after 48 hrs by Hoechst 33258 staining based fluorescence microscopic analysis; format: functional, cell-based
A549 [20] = experiment: Induction of apoptosis in human A549 cells assessed as nuclear fragmentation at 0.5 uM after 48 hrs by Hoechst 33258 staining based fluorescence microscopic analysis; format: functional, cell-based
A549 [21] = experiment: Induction of mitochondrial membrane potential loss in human A549 cells assessed as intact mitochondrial membrane at 0.5 uM after 48 hrs by JC1 staining based flow cytomtery (reference value: 96.3%); format: functional
A549 [22] = experiment: Cell cycle arrest in human A549 cells assessed as accumulation at G0/G1 phase at 1 uM after 48 hrs by propidium iodide staining based flow cytometry (reference value: 90.52%); format: functional
A549 [23] = experiment: Cell cycle arrest in human A549 cells assessed as accumulation at sub-G1 phase at 0.5 uM after 48 hrs by propidium iodide staining based flow cytometry (reference value: 1.11%); format: functional
A549 [24] = experiment: Cell cycle arrest in human A549 cells assessed as accumulation at G2/M phase at 1 uM after 48 hrs by propidium iodide staining based flow cytometry (reference value: 7.4%); format: functional
A549 [25] = experiment: Induction of apoptosis in human A549 cells assessed as live cells at 0.5 uM after 48 hrs by Annexin V-FITC/propidium iodide staining based flow cytometry (reference value: 93.97%); format: functional

- IC50 (MCF7): 14.9 µM
- IC50 (HeLa): 4.57 µM
- IC50 (A549 [1]): 4.47 µM
SMILES: COc1ccc(-c2nc3ccccn3c2C(=O)/C=C\Nc2cc(OC)cc(OC)c2)cc1
- IC50 (DU-145): 6.26 µM

- IC50 (MCF7): 19.4 µM
- IC50 (HeLa): 15.3 µM
- IC50 (A549 [1]): 8.8 µM
SMILES: COc1ccc(-c2nc3ccccn3c2C(=O)/C=C\Nc2ccc3cc[nH]c3c2)cc1
- IC50 (DU-145): 10.7 µM

- IC50 (MCF7): 2.69 µM
- inhibition (Tubulin (Homo sapiens)): 66.5%
- IC50 (Tubulin): 1.93 µM
- IC50 (HeLa): 1.48 µM
- IC50 (A549 [1]): 0.933 µM
SMILES: O=C(/C=C\Nc1ccc(Br)cc1)c1c(-c2ccc(Cl)cc2)nc2ccccn12
- Activity (A549 [2]): Active
- Activity (A549 [3]): 21.9 - 21.91%
- Activity (A549 [4]): 5.62%
- Activity (A549 [5]): 20.3%
- Activity (A549 [6]): 18.06 - 18.1%
- Activity (A549 [7]): 0.86%
- IC50 (DU-145): 1.5 µM
- Activity (A549 [8]): Active
- Activity (A549 [9]): 2.68%
- Activity (A549 [10]): 1.6 - 1.64%
- Activity (A549 [11]): 14.4%
- Activity (A549 [12]): 63.9%
- Activity (A549 [13]): 1.38 - 1.4%
- Activity (A549 [14]): 9.9 - 9.94%
- Activity (A549 [15]): 33.97 - 34%
- Activity (A549 [16]): 46.59 - 46.6%
- Activity (A549 [17]): 83.28%
- Activity (A549 [18]): 30.1%
- Activity (A549 [19]): Active
- Activity (A549 [20]): Active
- Activity (A549 [21]): 75.9%
- Activity (A549 [22]): 65.94%
- Activity (A549 [23]): 0.66%
- Activity (A549 [24]): 29.84%
- Activity (A549 [25]): 66.5 - 66.51%

- IC50 (MCF7): 9.83 µM
- IC50 (HeLa): 4.54 µM
- IC50 (A549 [1]): 1.35 µM
SMILES: COc1ccc(-c2nc3ccccn3c2C(=O)/C=C\Nc2ccc(Br)cc2)cc1
- IC50 (DU-145): 1.45 µM

- IC50 (MCF7): 3.39 µM
- IC50 (HeLa): 3.02 µM
- IC50 (A549 [1]): 1.14 µM
SMILES: COc1cc(N/C=C\C(=O)c2c(-c3ccc(Cl)cc3)nc3ccccn23)cc(OC)c1OC
- IC50 (DU-145): 3.25 µM

- IC50 (MCF7): 7.61 µM
- IC50 (HeLa): 14.9 µM
- IC50 (A549 [1]): 1.57 µM
SMILES: COc1ccc(N/C=C\C(=O)c2c(-c3ccccc3)nc3ccccn23)cc1
- IC50 (DU-145): 2.19 µM

SMILES: COC(=O)Nc1nc2cc(C(=O)c3cccs3)ccc2[nH]1 [NOCODAZOLE]
- Activity (A549 [4]): 4.55%
- IC50 (MCF7): 1.09 µM
- Activity (A549 [6]): 16.2 - 16.23%
- Activity (A549 [7]): 0.79%
- IC50 (DU-145): 1.26 µM
- Activity (A549 [8]): Active
- Activity (A549 [12]): 73.5%
- Activity (A549 [13]): 1.1 - 1.11%
- inhibition (Tubulin (Homo sapiens)): 66.8%
- Activity (A549 [15]): 31.19 - 31.2%
- Activity (A549 [16]): 51.48 - 51.5%
- Activity (A549 [18]): 22.6%
- Activity (A549 [22]): 66.92%
- IC50 (HeLa): 1.61 µM
- Activity (A549 [24]): 29.68%
- IC50 (A549 [1]): 1.39 µM

- IC50 (MCF7): 16.5 µM
- IC50 (HeLa): 19.9 µM
- IC50 (A549 [1]): 12.7 µM
SMILES: COc1ccc(N/C=C\C(=O)c2c(-c3ccc(OC)cc3)nc3ccccn23)cc1
- IC50 (DU-145): 11.1 µM

- IC50 (MCF7): 7.12 µM
- IC50 (HeLa): 3.24 µM
- IC50 (A549 [1]): 1.01 µM
SMILES: O=C(/C=C\Nc1ccc2[nH]ccc2c1)c1c(-c2ccc(Cl)cc2)nc2ccccn12
- IC50 (DU-145): 1.29 µM

- IC50 (MCF7): 10.2 µM
- IC50 (HeLa): 3.09 µM
- IC50 (A549 [1]): 2.24 µM
SMILES: COc1cc(N/C=C\C(=O)c2c(-c3ccccc3)nc3ccccn23)cc(OC)c1
- IC50 (DU-145): 2.92 µM

- IC50 (MCF7): 13 µM
- IC50 (HeLa): 11 µM
- IC50 (A549 [1]): 3.25 µM
SMILES: COc1ccc(-c2nc3ccccn3c2C(=O)/C=C\Nc2ccc(F)cc2)cc1
- IC50 (DU-145): 6.13 µM
